Data as given in US9174994B2, “Enhanced treatment regimens using mTor inhibitors” (INTELLIKINE LLC, priority 2011, dated 2015).

Experiment: Phase I clinical trial: treatment-emergent adverse events (patients, n (%)), dose limiting toxicity, MTD
Format: in vivo
[1] = all 3 intermittent dosing regimens, n=35

Procedure: Safety, maximum tolerated dose (MTD), pharmacokinetics (PK) and preliminary antitumor activity were evaluated.
Pharmacodynamic (PD) endpoints were evaluated in surrogate (peripheral blood cells [PBCs], skin) and tumor tissues for the phosphorylation of TORC1-dependent markers (4EBP1/S6), and TORC2-dependent markers (AKT/PRAS40).

CC(C)n1nc(-c2ccc3oc(N)nc3c2)c2c(N)ncnc21 [compound A]
13 (52%): Rash (Total QD Dosing (N = 25))
6 (24%): Decreased appetite (Total QD Dosing (N = 25)) | Fatigue (Total QD Dosing (N = 25)) | Vomiting (Total QD Dosing (N = 25))
5: Hyperglycaemia (Total QW Dosing (N = 15)) | Vomiting (Total QW Dosing (N = 15))
4 (29%): Pruritus (Total QDx3d QW (N = 14)) | Rash (Total QDx3d QW (N = 14))
10: Nausea (Total QW Dosing (N = 15))
7 (50%): Mucosal inflammation (Total QDx3d QW (N = 14))
13: Patients Reporting at Least One Related TEAE (Total QW Dosing (N = 15))
2 (33%): Patients Reporting at Least One Related TEAE (Total QDx5d QW (N = 6))
2 (8%): Dehydration (Total QD Dosing (N = 25))
3 (21%): Asthenia (Total QDx3d QW (N = 14)) | Vomiting (Total QDx3d QW (N = 14))
2 (14%): Diarrhoea (Total QDx3d QW (N = 14))
1 (17%): Diarrhoea (Total QDx5d QW (N = 6)) | Rash (Total QDx5d QW (N = 6)) | Urine tract infection (Total QDx5d QW (N = 6)) | Vomiting (Total QDx5d QW (N = 6)) | Nausea (Total QDx5d QW (N = 6), 1st Nausea line) | Nausea (Total QDx5d QW (N = 6), 2nd Nausea line)
1 (7%): Alanine aminotransferase increased (Total QDx3d QW (N = 14)) | Catheter site inflammation (Total QDx3d QW (N = 14)) | Catheter site pain (Total QDx3d QW (N = 14)) | Decreased appetite (Total QDx3d QW (N = 14)) | Dry skin (Total QDx3d QW (N = 14)) | Dysgeusia (Total QDx3d QW (N = 14)) | Dyspnoea (Total QDx3d QW (N = 14)) | Fatigue (Total QDx3d QW (N = 14)) | Headache (Total QDx3d QW (N = 14)) | Hyperbilirubinaemia (Total QDx3d QW (N = 14)) | Hypercholesterolaemia (Total QDx3d QW (N = 14)) | Hypertransaminasaemia (Total QDx3d QW (N = 14)) | Hypertriglyceridaemia (Total QDx3d QW (N = 14)) | Hypomagnesaemia (Total QDx3d QW (N = 14)) | Hypotension (Total QDx3d QW (N = 14)) | Low fever (Total QDx3d QW (N = 14)) | Lymphopenia (Total QDx3d QW (N = 14)) | Palmar-plantar erythrodysaesthesia syndrome (Total QDx3d QW (N = 14)) | Platelet count decreased (Total QDx3d QW (N = 14)) | Pyrexia (Total QDx3d QW (N = 14)) | Rash macular (Total QDx3d QW (N = 14)) | Urinary tract infection (Total QDx3d QW (N = 14)) | Asthenia (Total QDx3d QW (N = 14), 2nd Asthenia line) | ASTHENIA (Total QW Dosing (N = 15)) | ATHENIA (Total QW Dosing (N = 15)) | Alanine aminotransferase increased (Total QW Dosing (N = 15)) | Blood creatinine increased (Total QW Dosing (N = 15)) | Blood triglycerides increased (Total QW Dosing (N = 15)) | DIARRHEA (Total QW Dosing (N = 15)) | Decreased appetite (Total QW Dosing (N = 15)) | Dysgeusia (Total QW Dosing (N = 15)) | Dyspepsia (Total QW Dosing (N = 15)) | Lymphopenia (Total QW Dosing (N = 15)) | Malaise (Total QW Dosing (N = 15)) | Muscle spasms (Total QW Dosing (N = 15)) | Oral discomfort (Total QW Dosing (N = 15)) | Pruritus (Total QW Dosing (N = 15)) | RASH (Total QW Dosing (N = 15)) | Rash (Total QW Dosing (N = 15)) | WEAKNESS (Total QW Dosing (N = 15))
2: Aspartate aminotransferase increased (Total QW Dosing (N = 15)) | Asthenia (Total QW Dosing (N = 15)) | HYPERGLYCEMIA (Total QW Dosing (N = 15))
Grade 1 or 2: grade of the majority of AEs considered possibly related (any regimen)
8 (32%): Diarrhoea (Total QD Dosing (N = 25)) | Dysgeusia (Total QD Dosing (N = 25)) | Mucosal inflammation (Total QD Dosing (N = 25))
23%: asthenia, AE considered possibly related [1] | rash, AE considered possibly related [1]
37%: hyperglycemia, AE considered possibly related [1]
3 (12%): Lymphopenia (Total QD Dosing (N = 25))
25 (100%): Patients Reporting at Least One Related TEAE (Total QD Dosing (N = 25))
6 (43%): Hyperglycaemia (Total QDx3d QW (N = 14)) | Nausea (Total QDx3d QW (N = 14))
26%: vomiting, AE considered possibly related [1]
11 (79%): Patients Reporting at Least One Related TEAE (Total QDx3d QW (N = 14))
29%: mucosal inflammation, AE considered possibly related [1]
20%: diarrhea, AE considered possibly related [1]
not reached: MTD (intermittent dosing)
9 (36%): Nausea (Total QD Dosing (N = 25)) | Pruritus (Total QD Dosing (N = 25))
1 (4%): Cough (Total QD Dosing (N = 25)) | Dizziness (Total QD Dosing (N = 25)) | Dry skin (Total QD Dosing (N = 25)) | Dyspepsia (Total QD Dosing (N = 25)) | Dyspnoea (Total QD Dosing (N = 25)) | Dyspnoea exertional (Total QD Dosing (N = 25)) | Eye infection (Total QD Dosing (N = 25)) | Gastritis (Total QD Dosing (N = 25)) | Gravitational oedema (Total QD Dosing (N = 25)) | Hypocalcaemia (Total QD Dosing (N = 25)) | Insomnia (Total QD Dosing (N = 25)) | Muscle spasms (Total QD Dosing (N = 25)) | Orthostatic hypotension (Total QD Dosing (N = 25)) | Panniculitis (Total QD Dosing (N = 25)) | Polyuria (Total QD Dosing (N = 25)) | Skin discolouration (Total QD Dosing (N = 25)) | Skin exfoliation (Total QD Dosing (N = 25)) | Weight decreased (Total QD Dosing (N = 25))
51%: nausea, AE considered possibly related [1]
3: Diarrhoea (Total QW Dosing (N = 15)) | Mucosal inflammation (Total QW Dosing (N = 15))
22 (88%): Hyperglycaemia (Total QD Dosing (N = 25))
5 (20%): Dry mouth (Total QD Dosing (N = 25)) | Hypercholesterolaemia (Total QD Dosing (N = 25))
4 (16%): Thrombocytopenia (Total QD Dosing (N = 25))
